Assay [1] deals with RAC-alpha serine/threonine-protein kinase (Homo sapiens) (UniProt P31749). In words: Inhibition of AKT1 (unknown origin) assessed as residual activity at 1000 nM by KINOMEscan analysis relative to control.
Assay [2] concerns the target Aurora kinase B (Homo sapiens) (UniProt Q96GD4). Nature of the assay: Inhibition of AURKB (unknown origin) assessed as residual activity at 1000 nM by KINOMEscan analysis relative to control.
Assay [3] addresses Cyclin-dependent kinase 5 (Homo sapiens) (UniProt Q00535). Nature of the assay: Inhibition of CDK5 (unknown origin) assessed as residual activity at 1000 nM by KINOMEscan analysis relative to control.
Assay [4] has as its target Cyclin-dependent kinase 7 (Homo sapiens) (UniProt P50613). Nature of the assay: Inhibition of CDK7 (unknown origin) assessed as residual activity at 1000 nM by KINOMEscan analysis relative to control.
Assay [5] concerns the target Death-associated protein kinase 1 (Homo sapiens) (UniProt P53355). In words: Inhibition of DAPK1 (unknown origin) assessed as residual activity at 1000 nM by KINOMEscan analysis relative to control.
The test system of assay [6] is Epidermal growth factor receptor (Homo sapiens), P00533 [UNDEFINED MUTATION]. In words: Inhibition of EGFR L747-T751del/Sins mutant (unknown origin) assessed as residual activity at 1000 nM by KINOMEscan analysis relative to control.
Sequence of Epidermal growth factor receptor (Homo sapiens), P00533 [UNDEFINED MUTATION] (P00533 whole entry, looked up, stated change not applied): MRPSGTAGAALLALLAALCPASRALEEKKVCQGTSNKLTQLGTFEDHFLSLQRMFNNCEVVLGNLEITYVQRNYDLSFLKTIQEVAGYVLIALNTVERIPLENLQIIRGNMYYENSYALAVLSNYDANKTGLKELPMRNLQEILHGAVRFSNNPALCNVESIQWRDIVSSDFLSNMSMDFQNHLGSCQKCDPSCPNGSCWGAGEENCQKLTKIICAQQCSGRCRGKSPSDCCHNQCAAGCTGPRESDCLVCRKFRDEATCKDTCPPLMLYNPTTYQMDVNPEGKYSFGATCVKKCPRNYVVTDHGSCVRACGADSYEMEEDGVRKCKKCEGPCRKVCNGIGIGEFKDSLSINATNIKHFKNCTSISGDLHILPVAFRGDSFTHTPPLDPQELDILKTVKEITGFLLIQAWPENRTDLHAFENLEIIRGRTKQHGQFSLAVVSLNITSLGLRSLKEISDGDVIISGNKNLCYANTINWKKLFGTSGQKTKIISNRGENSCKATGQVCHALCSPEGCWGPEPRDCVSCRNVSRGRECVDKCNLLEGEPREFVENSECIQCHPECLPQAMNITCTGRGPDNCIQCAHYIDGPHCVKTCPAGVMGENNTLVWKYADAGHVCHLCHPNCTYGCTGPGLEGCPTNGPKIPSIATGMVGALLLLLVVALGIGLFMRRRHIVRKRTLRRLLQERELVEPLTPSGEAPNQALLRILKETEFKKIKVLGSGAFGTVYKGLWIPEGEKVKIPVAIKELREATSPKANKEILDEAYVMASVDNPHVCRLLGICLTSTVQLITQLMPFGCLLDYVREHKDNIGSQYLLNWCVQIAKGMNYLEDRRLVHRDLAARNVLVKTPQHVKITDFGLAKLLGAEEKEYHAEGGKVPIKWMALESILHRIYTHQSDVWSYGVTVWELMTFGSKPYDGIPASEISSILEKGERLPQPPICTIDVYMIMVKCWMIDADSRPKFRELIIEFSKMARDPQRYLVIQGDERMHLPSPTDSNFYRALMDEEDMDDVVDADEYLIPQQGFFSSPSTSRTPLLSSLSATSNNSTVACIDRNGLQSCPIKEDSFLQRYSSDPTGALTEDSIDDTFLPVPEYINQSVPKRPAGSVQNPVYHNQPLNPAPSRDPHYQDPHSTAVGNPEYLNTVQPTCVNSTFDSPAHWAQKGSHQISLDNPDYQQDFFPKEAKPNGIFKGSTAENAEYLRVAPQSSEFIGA
Assay [7] concerns the target Receptor-type tyrosine-protein kinase FLT3 (Homo sapiens) (UniProt P36888). Nature of the assay: Inhibition of FLT3 (unknown origin) assessed as residual activity at 1000 nM by KINOMEscan analysis relative to control.
The target is the same in assay [8]. Nature of the assay: Inhibition of autoinhibited FLT3 (unknown origin) assessed as residual activity at 1000 nM by KINOMEscan analysis relative to control.
Assay [9] deals with Glycogen synthase kinase-3 beta (Homo sapiens) (UniProt P49841). In words: Inhibition of GSK3B (unknown origin) assessed as residual activity at 1000 nM by KINOMEscan analysis relative to control.
The target in assay [10] is Leucine-rich repeat serine/threonine-protein kinase 2 (Homo sapiens) (UniProt Q5S007). Nature of the assay: Inhibition of LRRK2 (unknown origin) assessed as residual activity at 1000 nM by KINOMEscan analysis relative to control.
In assay [11] the target is T1, Mitogen-activated protein kinase kinase kinase 13 (Homo sapiens) (UniProt O43283).
T1 sequence (whole entry): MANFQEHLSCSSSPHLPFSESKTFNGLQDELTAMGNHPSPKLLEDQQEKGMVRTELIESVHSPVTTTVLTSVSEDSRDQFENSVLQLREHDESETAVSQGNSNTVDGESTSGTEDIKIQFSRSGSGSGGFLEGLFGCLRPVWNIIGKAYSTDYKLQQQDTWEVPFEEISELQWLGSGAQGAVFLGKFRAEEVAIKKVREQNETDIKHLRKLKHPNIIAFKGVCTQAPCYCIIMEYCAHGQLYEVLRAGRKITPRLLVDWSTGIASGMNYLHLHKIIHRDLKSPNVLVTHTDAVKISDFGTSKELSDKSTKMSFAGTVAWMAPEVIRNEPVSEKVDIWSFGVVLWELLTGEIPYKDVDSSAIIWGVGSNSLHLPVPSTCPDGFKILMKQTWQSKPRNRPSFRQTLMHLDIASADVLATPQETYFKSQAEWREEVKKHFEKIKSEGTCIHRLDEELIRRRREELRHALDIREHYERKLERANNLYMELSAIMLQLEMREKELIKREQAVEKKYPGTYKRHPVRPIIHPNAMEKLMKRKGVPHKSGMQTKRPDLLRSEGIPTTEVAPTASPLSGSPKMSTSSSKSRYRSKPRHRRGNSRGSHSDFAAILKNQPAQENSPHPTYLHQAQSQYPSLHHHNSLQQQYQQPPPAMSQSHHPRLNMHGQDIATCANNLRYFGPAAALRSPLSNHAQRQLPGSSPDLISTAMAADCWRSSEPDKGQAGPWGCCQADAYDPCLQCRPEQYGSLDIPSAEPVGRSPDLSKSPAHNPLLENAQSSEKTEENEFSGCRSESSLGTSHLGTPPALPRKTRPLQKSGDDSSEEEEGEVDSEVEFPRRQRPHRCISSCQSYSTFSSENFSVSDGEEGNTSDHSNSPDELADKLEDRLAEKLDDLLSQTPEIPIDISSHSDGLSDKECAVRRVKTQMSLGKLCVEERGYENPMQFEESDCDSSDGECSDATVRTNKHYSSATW
Nature of the assay: Inhibition of LZK (unknown origin) assessed as residual activity at 1000 nM by KINOMEscan analysis relative to control.

For assay [12], the target named is Myosin light chain kinase 2, skeletal/cardiac muscle (Homo sapiens) (UniProt Q9H1R3). In words: Inhibition of MYLK2 (unknown origin) assessed as residual activity at 1000 nM by KINOMEscan analysis relative to control.
Assay [13] deals with Phosphorylase b kinase gamma catalytic chain, skeletal muscle/heart isoform (Homo sapiens) (UniProt Q16816). In words: Inhibition of PHKG1 (unknown origin) assessed as residual activity at 1000 nM by KINOMEscan analysis relative to control.
The subject of assay [14] is Phosphatidylinositol 4,5-bisphosphate 3-kinase catalytic subunit alpha isoform (Homo sapiens), P42336 [C420R]. Nature of the assay: Inhibition of PIK3CA C420R mutant (unknown origin) assessed as residual activity at 1000 nM by KINOMEscan analysis relative to control.
Assay [15] addresses SRSF protein kinase 1 (Homo sapiens) (UniProt Q96SB4). In words: Inhibition of SRPK1 (unknown origin) assessed as residual activity at 1000 nM by KINOMEscan analysis relative to control.
The target in assay [16] is Non-receptor tyrosine-protein kinase TYK2 (Homo sapiens) (UniProt P29597). In words: Inhibition of TYK2 JH2 pseudokinase domain (unknown origin) assessed as residual activity at 1000 nM by KINOMEscan analysis relative to control.
Sequence of Non-receptor tyrosine-protein kinase TYK2 (Homo sapiens) (P29597 whole entry, the tested form may be a part): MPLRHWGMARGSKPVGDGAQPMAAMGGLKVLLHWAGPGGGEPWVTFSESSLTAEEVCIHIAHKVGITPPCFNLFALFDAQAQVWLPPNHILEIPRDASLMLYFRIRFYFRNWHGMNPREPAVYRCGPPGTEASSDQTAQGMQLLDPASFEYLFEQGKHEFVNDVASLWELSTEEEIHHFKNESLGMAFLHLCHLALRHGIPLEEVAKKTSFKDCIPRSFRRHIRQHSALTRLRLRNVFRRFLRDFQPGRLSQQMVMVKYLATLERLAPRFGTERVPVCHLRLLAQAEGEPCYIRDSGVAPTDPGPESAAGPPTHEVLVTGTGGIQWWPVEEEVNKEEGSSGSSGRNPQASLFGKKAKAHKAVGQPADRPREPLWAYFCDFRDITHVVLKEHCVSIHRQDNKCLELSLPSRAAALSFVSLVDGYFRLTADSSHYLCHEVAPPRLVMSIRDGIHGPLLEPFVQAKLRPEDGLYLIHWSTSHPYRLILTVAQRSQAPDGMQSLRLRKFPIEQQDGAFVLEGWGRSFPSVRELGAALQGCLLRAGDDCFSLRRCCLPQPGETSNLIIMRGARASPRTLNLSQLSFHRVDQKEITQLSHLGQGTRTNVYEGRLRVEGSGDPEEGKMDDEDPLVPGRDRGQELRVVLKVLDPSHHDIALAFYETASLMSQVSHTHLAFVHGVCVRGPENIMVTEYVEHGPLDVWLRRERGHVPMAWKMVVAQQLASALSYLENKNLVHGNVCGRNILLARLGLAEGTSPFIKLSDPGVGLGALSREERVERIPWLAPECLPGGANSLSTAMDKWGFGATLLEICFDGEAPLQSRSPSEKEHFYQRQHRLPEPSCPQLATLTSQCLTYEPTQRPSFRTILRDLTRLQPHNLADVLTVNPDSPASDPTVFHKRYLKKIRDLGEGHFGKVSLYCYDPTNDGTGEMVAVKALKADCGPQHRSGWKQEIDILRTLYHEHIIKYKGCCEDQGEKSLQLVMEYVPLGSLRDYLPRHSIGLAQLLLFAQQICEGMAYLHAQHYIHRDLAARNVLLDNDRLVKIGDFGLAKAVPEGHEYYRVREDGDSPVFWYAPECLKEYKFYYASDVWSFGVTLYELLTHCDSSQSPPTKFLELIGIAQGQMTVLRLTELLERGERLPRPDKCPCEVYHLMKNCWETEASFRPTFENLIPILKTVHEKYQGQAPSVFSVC
For assay [17], the target named is Mitogen-activated protein kinase kinase kinase 12 (Homo sapiens) (UniProt Q12852). In words: Inhibition of DLK (unknown origin) assessed as residual activity at 1000 nM by KINOMEscan analysis relative to control.
Sequence of Mitogen-activated protein kinase kinase kinase 12 (Homo sapiens) (Q12852 whole entry, looked up): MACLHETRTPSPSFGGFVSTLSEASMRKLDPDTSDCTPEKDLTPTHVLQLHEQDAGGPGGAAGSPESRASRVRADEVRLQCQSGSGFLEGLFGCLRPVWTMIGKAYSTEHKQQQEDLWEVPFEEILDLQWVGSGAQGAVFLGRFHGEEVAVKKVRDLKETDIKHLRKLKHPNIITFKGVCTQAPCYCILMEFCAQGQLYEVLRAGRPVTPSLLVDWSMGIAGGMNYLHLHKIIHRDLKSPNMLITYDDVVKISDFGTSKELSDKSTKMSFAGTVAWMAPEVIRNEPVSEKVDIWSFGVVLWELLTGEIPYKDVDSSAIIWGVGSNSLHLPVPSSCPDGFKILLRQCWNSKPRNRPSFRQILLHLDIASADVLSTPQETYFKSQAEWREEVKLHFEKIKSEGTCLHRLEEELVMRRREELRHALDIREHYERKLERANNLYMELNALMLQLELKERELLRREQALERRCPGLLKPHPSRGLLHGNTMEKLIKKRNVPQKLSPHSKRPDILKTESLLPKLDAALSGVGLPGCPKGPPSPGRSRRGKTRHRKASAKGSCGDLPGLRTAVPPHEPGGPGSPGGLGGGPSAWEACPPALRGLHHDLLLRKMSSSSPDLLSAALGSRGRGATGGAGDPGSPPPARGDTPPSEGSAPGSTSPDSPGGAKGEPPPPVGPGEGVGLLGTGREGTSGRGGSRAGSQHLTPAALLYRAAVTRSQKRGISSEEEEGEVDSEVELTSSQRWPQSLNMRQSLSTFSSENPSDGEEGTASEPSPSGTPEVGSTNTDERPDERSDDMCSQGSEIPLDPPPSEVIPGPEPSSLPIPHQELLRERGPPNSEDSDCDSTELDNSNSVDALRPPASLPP

Sequence of Receptor-type tyrosine-protein kinase FLT3 (Homo sapiens) (P36888 whole entry): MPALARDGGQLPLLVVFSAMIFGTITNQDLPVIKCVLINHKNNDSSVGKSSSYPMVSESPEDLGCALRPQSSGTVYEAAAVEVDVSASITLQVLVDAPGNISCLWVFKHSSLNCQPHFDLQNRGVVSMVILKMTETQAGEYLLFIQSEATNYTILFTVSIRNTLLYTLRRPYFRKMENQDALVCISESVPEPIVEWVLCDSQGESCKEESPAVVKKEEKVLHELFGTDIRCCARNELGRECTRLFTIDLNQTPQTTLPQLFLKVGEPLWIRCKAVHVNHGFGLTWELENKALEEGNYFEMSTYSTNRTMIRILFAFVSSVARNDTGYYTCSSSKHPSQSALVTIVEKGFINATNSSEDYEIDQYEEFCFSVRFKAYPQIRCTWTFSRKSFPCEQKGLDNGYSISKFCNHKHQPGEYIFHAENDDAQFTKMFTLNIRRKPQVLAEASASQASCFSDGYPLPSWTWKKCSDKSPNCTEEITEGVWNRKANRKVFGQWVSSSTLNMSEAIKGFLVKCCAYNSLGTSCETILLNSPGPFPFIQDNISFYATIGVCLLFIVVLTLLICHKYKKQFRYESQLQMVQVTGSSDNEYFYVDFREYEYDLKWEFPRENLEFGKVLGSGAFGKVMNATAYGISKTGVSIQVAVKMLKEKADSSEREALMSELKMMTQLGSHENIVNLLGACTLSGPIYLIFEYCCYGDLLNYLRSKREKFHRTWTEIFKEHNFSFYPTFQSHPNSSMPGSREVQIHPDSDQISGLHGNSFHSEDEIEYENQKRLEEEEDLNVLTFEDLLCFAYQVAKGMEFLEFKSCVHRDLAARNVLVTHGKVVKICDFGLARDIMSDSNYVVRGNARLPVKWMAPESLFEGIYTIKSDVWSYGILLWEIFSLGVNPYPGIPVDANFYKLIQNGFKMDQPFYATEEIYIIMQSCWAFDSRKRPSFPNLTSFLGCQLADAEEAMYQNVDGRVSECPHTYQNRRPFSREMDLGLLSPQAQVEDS
Sequence of SRSF protein kinase 1 (Homo sapiens) (Q96SB4 whole entry, the tested form may be a part): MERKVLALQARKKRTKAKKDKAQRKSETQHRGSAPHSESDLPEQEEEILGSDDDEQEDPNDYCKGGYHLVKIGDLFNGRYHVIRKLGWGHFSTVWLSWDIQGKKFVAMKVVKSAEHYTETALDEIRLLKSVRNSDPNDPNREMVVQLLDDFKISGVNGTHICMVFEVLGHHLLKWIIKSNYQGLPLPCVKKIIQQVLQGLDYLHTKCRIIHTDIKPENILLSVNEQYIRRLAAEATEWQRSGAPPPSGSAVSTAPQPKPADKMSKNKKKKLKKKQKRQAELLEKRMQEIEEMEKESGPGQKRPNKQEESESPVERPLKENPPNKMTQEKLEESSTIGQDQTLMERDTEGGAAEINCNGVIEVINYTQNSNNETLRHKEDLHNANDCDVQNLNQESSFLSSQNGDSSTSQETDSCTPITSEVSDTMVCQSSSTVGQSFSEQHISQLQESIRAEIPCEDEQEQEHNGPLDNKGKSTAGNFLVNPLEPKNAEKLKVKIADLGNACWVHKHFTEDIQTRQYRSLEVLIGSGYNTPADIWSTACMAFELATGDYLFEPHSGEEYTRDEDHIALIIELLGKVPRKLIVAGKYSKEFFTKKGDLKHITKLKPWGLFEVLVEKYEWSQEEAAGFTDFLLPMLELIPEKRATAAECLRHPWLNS

Consider `COc1cc2ncnc(N[C@H](C)c3cccc4ccccc34)c2cc1OC`, for which the Activity amounted to 87% in assay [1]; 98% in [2]; 100% in [3]; 87% in [4]; 100% in assay [5]; 5.8% in [6]. Further, the Activity was 93% in assay [7]; 87% in assay [8]; 100% in assay [9]; 99% in [10]; 99% in [11]; 100% in assay [12]. Besides, the Activity was 100% in assay [13]; 82% in assay [14]; 98% in assay [15]; 100% in assay [16]; 92% in assay [17].
Take `COc1cc2nc(C)nc(N[C@H](C)c3cccc(-c4cn[nH]c4)c3)c2cc1OC`: the Activity in assay [1] turned out to be 82%; in [2] it was 79%; in assay [3], 94%; in assay [4], 92%; in assay [5] it was 82%; in assay [6] it was 99%. Further, the Activity in assay [7] turned out to be 78%; in assay [8], 100%; in [9], 61%; in [10], 94%; in assay [11], 94%; in assay [12], 73%. In addition, the Activity in [13] is 100%; in [14], 82%; in assay [15] it was 77%; in assay [16], 80%; in [17], 95%.
